Source: paper PMC7795425, “Synthesis and Biological Activity of Brassinosteroid Analogues with a Nitrogen-Containing Side Chain” (International Journal of Molecular Sciences, 2020)
Entries after “also recorded” stand apart in the source; their conditions may differ.

How the values were obtained:
rice leaf lamina = system: rice leaf lamina; design: method as in PMID 11674612; conditions: all doses studied; cited from earlier work
[1] = system: Arabidopsis thaliana L. (Columbia ecotype, Col-0) seedlings; assay: Arabidopsis root sensitivity bioassay; format: in vivo; conditions: for root length, mean: 7-day-old seedlings; for elongation of roots (growth-promoting activity) compared to the control: low concentrations (0.1 and 1 nM)
Experimental: Several bioassays such as the first bean internode, root growth and rice lamina inclination have been developed to evaluate the growth-promoting activity of BR derivatives. In this work, the activity of new BR analogues was evaluated using the Arabidopsis root sensitivity test because of its simplicity and high sensitivity for BRs.. The characteristic effect of exogenously applied BRs on light-grown Arabidopsis is dose-dependent—BRs in higher concentrations cause inhibition of root growth; vice versa, low concentrations are stimulating. The results obtained for 24-epiBL, which was used as a positive control, and the BR derivatives are shown in Figure 2, Figure 3 and Figure S21. […] A similar trend was shown for dimethylammonium hydrochloride 22a and morpholinium hydrochloride 22e with a long side chain. For numerical values of the average, SD and p-value, see Table S2.
The biological activity of the new BRs derivatives was tested by an Arabidopsis sensitivity bioassay which was performed according to [28]. Briefly, seedlings of Arabidopsis thaliana L. (Columbia ecotype, Col-0) were stratified for 2 days at 4 °C and germinated on vertical half-strength Murashige and Skoog (1% w/v sucrose) agar at 22 °C in a 16 h/8 h light–dark cycle. The plates contained concentrations of 24-epiBL (as positive control) and BR derivatives ranging from 0.1 to 10 nM, respectively 100 nM (for selected derivatives only). After 7 days, roots were straightened on solid media plates and scanned with an Epson high-resolution scanner. The entire root length was measured with ImageJ (http://rsbweb.nih.gov/ij/). For each treatment, more than 15 seedlings were analyzed in two biological repeats, and p-values were calculated with the two-tailed Student t-test using Excel software.
(§1) Figure 2 Effect of selected brassinosteroid derivatives on the inhibition of Arabidopsis root length. Seven-day-old Arabidopsis thaliana seedlings (Columbia ecotype, Col-0) were treated with DMSO as control/24epiBL/BR short side chain derivatives; (A)—amides, (B)—amines, (C)—ammonium hydrochlorides. For each treatment, more than 15 seedlings were analyzed in two biological repeats. Error bars represent SD. Asterisks represent significant changes (t-test); * represents p-value < 0.05, in comparison to control.
as §1, with “Figure 3” for “Figure 2”, “control/24epiBL/BR long” for “control/24epiBL/BR short”, “(A)—amides, (B)—ammonium” for “(A)—amides, (B)—amines, (C)—ammonium”
Table S2: Data for figure 2, 3, and S21. P value <0.05(t-test), comparison to control.
control (mean ± SD) 16.3 ± 1.21
*only selected compounds were tested
mean(mm) SD t-test mean (mm) SD t-test mean (mm) SD t-test mean (mm) SD t-test
(1 picture or pasted object on this page, not shown here)

[2] = Calcein AM cytotoxicity assay, CEM; format: cell-based; conditions: human, CEM T-lymphoblastic leukemia cells, IC50 > 50 µM means inactive, read-out: Cytotoxic activity IC50
Experimental: (§2) The effect of the prepared BRs derivatives on the viability (in Calcein AM assays) of BJ human fibroblasts (as an example of a “normal” cell line) and human cancer cell lines of various histopathological origins, including: T-lymphoblastic leukemia CEM, breast carcinoma MCF7 and cervical carcinoma cell line HeLa, was also studied. Cells of all these lines were exposed to six 3-fold dilutions of each drug for 72 h prior to determination of cell survival. The IC50 (concentration leading to 50% inhibition of viability) values obtained from the Calcein AM cytotoxicity assay were calculated. […] All tested BR nitrogen-containing derivatives had no detectable activity, even when tested in concentrations of up to 50 µM.
(§3) The screening cell lines: T-lymphoblastic leukemia CEM; breast carcinoma MCF7 (estrogen-sensitive); cervical carcinoma cell line HeLa; and human foreskin fibroblasts BJ, were obtained from the American Type Culture Collection (Manassas, VA, USA). Cells were cultured in DMEM (Dulbecco’s Modified Eagle Medium, Sigma, St. Louis, MO, USA). Media used were supplemented with 10% fetal bovine serum, 2mM L-glutamine and 1% penicillin–streptomycin. The cell lines were maintained under standard cell culture conditions at 37 °C and 5% CO2 in a humid environment.
(§4) Cells were subcultured twice or three times a week using the standard trypsinization procedure. Cytotoxicity in cancer cell lines after 72 h was determined as described earlier. Control cultures were treated with DMSO alone, and the final concentration of DMSO in the mixture never exceeded 0.6%. Six serial 3-fold dilutions of the test substances were added at time zero in 20 μL aliquots to the microtiter plate wells and the highest final concentration in the wells was 50 μM.
(§5) Table S3: Cytotoxic activities, IC50 (µM/L)a, of compounds in three tumor and one normal fibroblast
(§6) Compound CEM MCF7 HeLa BJ
(§7) a The lowest concentration that kills 50% of cells.
(§8) b Increase of cell proliferation.

[3] = Calcein AM cytotoxicity assay, MCF7; format: cell-based; conditions: human, MCF7 breast carcinoma cells (estrogen-sensitive), MCF7, 72 h, IC50 > 50 µM means inactive, read-out: Cytotoxic activity IC50
Experimental: as §2, §3, §4, §5, §6, §7, §8

[4] = Calcein AM cytotoxicity assay, HeLa; format: cell-based; conditions: human, HeLa cervical carcinoma cells, IC50 > 50 µM means inactive, read-out: Cytotoxic activity IC50
Experimental: as §2, §3, §4, §5, §6, §7, §8

[5] = Calcein AM cytotoxicity assay, BJ; format: cell-based; conditions: human, BJ foreskin fibroblasts (normal cell line), IC50 > 50 µM means inactive, read-out: Cytotoxic activity IC50
Experimental: as §2, §3, §4, §5, §6, §7, §8

[6] = system: T-lymphoblastic leukemia CEM; design: method as in PMID 17869317; conditions: CEM cells; positive control; cited from earlier work
[7] = 100 nM (only selected compounds), control 14.61 ± 0.85

Compound | biological activity in rice lamina inclination (rice leaf lamina) | root length, mean ([1]; 0.1 nM, control 16.3 ± 1.21) | root length, mean ([1]; 1 nM, control 16.3 ± 1.21) | root length, mean ([1]; 10 nM, control 16.3 ± 1.21) | IC50 at 72 h [2] | IC50 at 72 h [3] | IC50 at 72 h [4] | IC50 at 72 h [5] | melting point | root length, mean [1, 7] | elongation of roots (growth-promoting activity) compared to the control [1] | inhibitory effect on Arabidopsis root growth ([1]; tested 0.1 to 10 nM, selected derivatives also 100 nM) | IC50 [6]
25-azabrassinolide | completely inactive; also recorded: no biological activity | – | – | – | – | – | – | – | – | – | – | – | –
C[C@H]([C@@H](O)[C@H](O)C(=O)N1CCCCC1)[C@H]1CC[C@H]2[C@@H]3CC(=O)[C@H]4C[C@H](O)[C@H](O)C[C@]4(C)[C@H]3CC[C@]12C [20d, 1-((20S,22R,23S)-2α,3α,22,23-tetrahydroxy-6-oxo-5α-cholan-24-oyl)piperidine] | – | 14.37 mm | 14.50 mm | 14.51 mm | > 50 µM | > 50 µM | > 50 µM | > 50 µM | > 200 °C (dec.) | – | – | – | –
C[C@H]([C@@H](O)[C@H](O)C(=O)N1CCOCC1)[C@H]1CC[C@H]2[C@@H]3CC(=O)[C@H]4C[C@H](O)[C@H](O)C[C@]4(C)[C@H]3CC[C@]12C [20e, 4-((20S,22R,23S)-2α,3α,22,23-tetrahydroxy-6-oxo-5α-cholan-24-oyl)morpholine] | – | 17.44 mm | 16.78 mm | 15.97 mm | > 50 µM | > 50 µM | > 50 µM | > 50 µM | > 210 °C (dec.) | – | – | – | –
C[C@H]([C@@H](O)[C@@H](O)CN(C)C)[C@H]1CC[C@H]2[C@@H]3CC(=O)[C@H]4C[C@H](O)[C@H](O)C[C@]4(C)[C@H]3CC[C@]12C.Cl [22a, N,N-dimethyl-((20S,22R,23S)-2α,3α,22,23-tetrahydroxy-6-oxo-5α-cholan-24-yl)aminium chloride] | – | 19.56 mm | 18.17 mm | 17.11 mm | > 50 µM | > 50 µM | > 50 µM | > 50 µM | > 270 °C (dec.) | 13.464 mm | interesting growth-promoting activity | – | –
CCN(CC)C[C@H](O)[C@H](O)[C@@H](C)[C@H]1CC[C@H]2[C@@H]3CC(=O)[C@H]4C[C@H](O)[C@H](O)C[C@]4(C)[C@H]3CC[C@]12C.Cl [22b, N,N-diethyl-((20S,22R,23S)-2α,3α,22,23-tetrahydroxy-6-oxo-5α-cholan-24-yl)aminium chloride] | – | 14.51 mm | 15.32 mm | 15.48 mm | > 50 µM | > 50 µM | > 50 µM | > 50 µM | > 250 °C (dec.) | 15.160 mm | – | the same effect only at low concentrations | –
C[C@H]([C@@H](O)[C@@H](O)CN1CCCC1)[C@H]1CC[C@H]2[C@@H]3CC(=O)[C@H]4C[C@H](O)[C@H](O)C[C@]4(C)[C@H]3CC[C@]12C.Cl [22c, 1-((20S,22R,23S)-2α,3α,22,23-tetrahydroxy-6-oxo-5α-cholan-24-yl)pyrrolidinium chloride] | – | 15.97 mm | 14.83 mm | 15.81 mm | > 50 µM | > 50 µM | > 50 µM | > 50 µM | > 250 °C (dec.) | – | – | – | –
C[C@H]([C@@H](O)[C@@H](O)CN1CCCCC1)[C@H]1CC[C@H]2[C@@H]3CC(=O)[C@H]4C[C@H](O)[C@H](O)C[C@]4(C)[C@H]3CC[C@]12C.Cl [22d, 1-((20S,22R,23S)-2α,3α,22,23-tetrahydroxy-6-oxo-5α-cholan-24-yl)piperidinium chloride] | – | 15.48 mm | 15.97 mm | 16.62 mm | > 50 µM | > 50 µM | > 50 µM | > 50 µM | > 250 °C (dec.) | – | – | – | –
C[C@H]([C@@H](O)[C@@H](O)CN1CCOCC1)[C@H]1CC[C@H]2[C@@H]3CC(=O)[C@H]4C[C@H](O)[C@H](O)C[C@]4(C)[C@H]3CC[C@]12C.Cl [22e, 4-((20S,22R,23S)-2α,3α,22,23-tetrahydroxy-6-oxo-5α-cholan-24-yl)morpholinium chloride] | – | 17.93 mm | 17.27 mm | 16.95 mm | > 50 µM | > 50 µM | > 50 µM | > 50 µM | > 270 °C (dec.) | – | interesting growth-promoting activity | – | –
CCC(C(C)C)C(O)C(O)C(C)C1CCC2C3CC(=O)C4CC(O)C(O)CC4(C)C3CCC12C (stereo not drawn) [28-Homocastasterone] | – | – | – | – | – | – | – | – | – | – | – | – | 13 µM
